Results published in patent US4226610A, “Herbicidal compounds, preparation thereof and herbicides containing the same” (Meiji Selka Kaisha, Ltd., priority 1978, dated 1980).

Key:
[1] = system: cockspar grass; experiment: Experiment 1 foliar application to naturally growing weeds; assay type: in vivo, Echinochloa Crusgalli P. Beauv.; conditions: for Reproduction-inhibiting effect: 2 months
In short: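 Read-outs were a 0–5 killing index at 21 days and a reproduction score from (-), no reproduction, to (+++), no suppression. Reproduction was read at 2 months for cockspar grass and 4 months for the other species, after foliar spraying at 150 liter per 10 are with 0.1% surfactant.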

[2] = system: yabugarashi; experiment: as above; assay type: in vivo, Cayratia japonica Houtt.; conditions: for Reproduction-inhibiting effect: 4 months
In short: (§1)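 Naturally growing weeds receive a foliar spray of compound at prescribed concentrations, 150 liter per 10 are, containing 0.1% octylphenyl polyoxyethanol. Kill is rated 0 (no effect) to 5 (death) after 21 days. Regrowth is rated (-) to (+++) after 4 months, or 2 months for cockspar grass.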

[3] = system: purple nutsedge; experiment: as above; assay type: in vivo, Cyperus rotundus L.; conditions: 4 months
In short: as §1

[4] = system: white clover; experiment: as above; assay type: in vivo, Trifolium repens L.; conditions: 4 months
In short: as §1

[5] = system: lace shrub; experiment: Experiment 3 foliar application to naturally growing shrubs; assay type: in vivo, Stephanandra incisa Zabel; conditions: after 3 months
In short: (§2)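 Naturally growing shrubs were sprayed on the foliage at 150 liter per 10 are. Plant kill was then scored from 0 to 5 at 1 and 3 months, and reproduction was graded − to +++ at 3 months.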

[6] = system: torch azalea; experiment: as above; assay type: in vivo, Rhododendoron Kaempferi Planch.; conditions: for Reproduction-inhibiting: after 3 months
In short: as §2

[7] = system: oak; experiment: as above; assay type: in vivo, Quercus serrata Thunb; conditions: after 3 months
In short: as §2

[8] = system: urikawa; experiment: Experiment 6 spray on aquatic plants in concrete pots; assay type: in vivo, Sagittaria pygmaea Miguel; conditions: 3 months
Description: (§3) The detail of the assessment made in the following Experiments of the invention was as follows:
(§4) Four months after treatment, evaluation was made for inhibition of reproduction expressed in terms of symbols ranging from (-) to (+++) where (-) means no reproduction, namely complete suppression of reproduction, (±) remarkable suppression of reproduction; (+) considerable suppression of reproduction; (++) medium supprestion of reproduction; and (+++) no suppression of reproduction.
(§5) A paddy field soil was packed in 50 cm. square concrete pots. omodaka (Sagittaria trifolia L.), urikawa (Sagittaria pygmaea Miq.), prog-bit (Hydrocharis dubia) and aginashi (Sagittaria Aginashi Makino) were transplanted; then water was poured onto the soil at 5 cm. depth.
(§6) Further, water hyacinth, greater-duckweed (Spirodela polyrhiza Schleid.) and duckweed (Lemna paucicostata Hegelm) were floated on the water.
(§7) After one month, the compounds of the invention diluted to the prescribed concentrations as indicated in Table 8 were sprayed in an amount of 100 liter per 10 are. As a surfactant, 0.1% of octylphenyl polyoxyethanol was added thereto.
(§8) The killing index (0, no effect; 5, death) after 21 days and 3 months and the reproduction-inhibiting effect (-, no reproduction; +++, maximum reproduction) after 3 months were determined.

[9] = system: progbit; experiment: as above; assay type: in vivo, Hydrocharis dubia; conditions: 3 months
Description: as §3, §4, §5, §6, §7, §8

[10] = system: greaterduckweed; experiment: as above; assay type: in vivo, Spirodela polyrhiza Sohleid.; conditions: for Reproduction-inhibiting effect: 3 months
Description: as §3, §4, §5, §6, §7, §8

[11] = system: hornwort; experiment: Experiment 7 application to water; assay type: in vivo, Ceratophyllum demersum L.; set-up: scale not given here
Description: (§9) A black soil was packed in 50 cm. square concrete pots and water was poured there-onto at 50 cm. in depth. Hornwort (Ceratophyllum demersum L.), stonewort (Chara Braunii Gmel.) and salvinia (Salvinia natans All.) were transplanted and pond scum (Spirogira crassa Kutz) and diatoms (Bacillariophyta) were floated in the water.
(§10) Then, the compounds of the invention were applied dropwise onto the surface of the water so that the prescribed concentrations in the water are obtained as indicated in Table 9.

[12] = system: salvinia; experiment: Experiment 7 application to water; assay type: in vivo, Salvinia natans Allioni; set-up: scale not given here
Description: as §9, §10

[13] = system: pond scum; experiment: Experiment 7 application to water; assay type: in vivo, Spirogira crassa Kutz.; set-up: scale not given here
Description: as §9, §10

[14] = system: diatoms; experiment: Experiment 7 application to water; assay type: in vivo, Bacillariophyta; set-up: scale not given here
Description: as §9, §10

SMILES: C[C@H](NC(=O)[C@H](C)NC(=O)[C@@H](N)CCP(C)(=O)O)C(=O)O [SF-1293 choline, (L-2-Amino-4-methylphosphinobutyryl)-L-alanyl-L-alanine choline]
- Reproduction-inhibiting effect ([1]; 0.05%): +
- Reproduction-inhibiting effect ([1]; 0.1%): ±
- Killing index of Upperground parts ([1]; 0.1%, 21 days): 4.5
- Reproduction-inhibiting effect ([1]; 0.2%): -
- Reproduction-inhibiting effect ([2]; 0.05%): ++
- Killing index of Upperground parts ([2]; 0.05%, 21 days): 3.5
- Reproduction-inhibiting effect ([2]; 0.1%): ±
- Reproduction-inhibiting effect ([2]; 0.2%): -
- Reproduction-inhibiting effect ([3]; 0.05%): ++
- Reproduction-inhibiting effect ([3]; 0.1%): +
- Reproduction-inhibiting effect ([3]; 0.2%): ±
- Reproduction-inhibiting effect ([4]; 0.05%): +
- Reproduction-inhibiting effect ([4]; 0.1%): -
- Reproduction-inhibiting effect ([4]; 0.2%): -
- Reproduction-inhibiting ([5]; 0.05%): ++
- Reproduction-inhibiting ([5]; 0.1%): -
- Reproduction-inhibiting ([5]; 0.2%): -
- Reproduction-inhibiting ([6]; 0.05%): ++
- Reproduction-inhibiting ([6]; 0.1%): -
- Killing index ([6]; 0.1%, after 30 days): 4.5
- Reproduction-inhibiting ([6]; 0.2%): -
- Reproduction-inhibiting ([7]; 0.05%): ++
- Reproduction-inhibiting ([7]; 0.1%): -
- Reproduction-inhibiting ([7]; 0.2%): -
- Reproduction-inhibiting effect ([8]; 0.05%): ++
- Reproduction-inhibiting effect ([8]; 0.1%): ±
- Reproduction-inhibiting effect ([8]; 0.2%): -
- Reproduction-inhibiting effect ([9]; 0.05%): ++
- Reproduction-inhibiting effect ([9]; 0.1%): ±
- Reproduction-inhibiting effect ([9]; 0.2%): -
- Reproduction-inhibiting effect ([10]; 0.05%): +
- Reproduction-inhibiting effect ([10]; 0.1%): -
- Killing index ([10]; 0.1%, 21 days): 4.5
- Reproduction-inhibiting effect ([10]; 0.2%): -
- controlling effect ([11]; 1 ppm, 3 months): 1
- controlling effect ([11]; 1 ppm, 21 days): 2
- controlling effect ([11]; 3 ppm, 3 months): 5
- controlling effect ([11]; 3 ppm, 21 days): 4
- controlling effect ([11]; 10 ppm, 3 months): 5
- controlling effect ([11]; 10 ppm, 21 days): 5
- controlling effect ([12]; 1 ppm, 3 months): 3
- controlling effect ([12]; 1 ppm, 21 days): 3.5
- controlling effect ([12]; 3 ppm, 3 months): 5
- controlling effect ([12]; 3 ppm, 21 days): 4.5
- controlling effect ([12]; 10 ppm, 3 months): 5
- controlling effect ([12]; 10 ppm, 21 days): 5
- controlling effect ([13]; 1 ppm, 3 months): 1
- controlling effect ([13]; 1 ppm, 21 days): 2
- controlling effect ([13]; 3 ppm, 3 months): 5
- controlling effect ([13]; 3 ppm, 21 days): 3.5
- controlling effect ([13]; 10 ppm, 3 months): 5
- controlling effect ([13]; 10 ppm, 21 days): 5
- controlling effect ([14]; 1 ppm, 3 months): 1
- controlling effect ([14]; 1 ppm, 21 days): 2
- controlling effect ([14]; 3 ppm, 3 months): 5
- controlling effect ([14]; 3 ppm, 21 days): 3
- controlling effect ([14]; 10 ppm, 3 months): 5
- controlling effect ([14]; 10 ppm, 21 days): 5
